# Test results from patent US10100056B2, “SHIP1 modulators and methods related thereto” (Aquinox Pharmaceuticals (Canada) Inc., priority 2013, dated 2018).
# Target: T1, His-hSHIP1 enzyme (Homo sapiens, UniProt Q92835)
# T1 construct: His
# T1 sequence (Q92835 1-1189): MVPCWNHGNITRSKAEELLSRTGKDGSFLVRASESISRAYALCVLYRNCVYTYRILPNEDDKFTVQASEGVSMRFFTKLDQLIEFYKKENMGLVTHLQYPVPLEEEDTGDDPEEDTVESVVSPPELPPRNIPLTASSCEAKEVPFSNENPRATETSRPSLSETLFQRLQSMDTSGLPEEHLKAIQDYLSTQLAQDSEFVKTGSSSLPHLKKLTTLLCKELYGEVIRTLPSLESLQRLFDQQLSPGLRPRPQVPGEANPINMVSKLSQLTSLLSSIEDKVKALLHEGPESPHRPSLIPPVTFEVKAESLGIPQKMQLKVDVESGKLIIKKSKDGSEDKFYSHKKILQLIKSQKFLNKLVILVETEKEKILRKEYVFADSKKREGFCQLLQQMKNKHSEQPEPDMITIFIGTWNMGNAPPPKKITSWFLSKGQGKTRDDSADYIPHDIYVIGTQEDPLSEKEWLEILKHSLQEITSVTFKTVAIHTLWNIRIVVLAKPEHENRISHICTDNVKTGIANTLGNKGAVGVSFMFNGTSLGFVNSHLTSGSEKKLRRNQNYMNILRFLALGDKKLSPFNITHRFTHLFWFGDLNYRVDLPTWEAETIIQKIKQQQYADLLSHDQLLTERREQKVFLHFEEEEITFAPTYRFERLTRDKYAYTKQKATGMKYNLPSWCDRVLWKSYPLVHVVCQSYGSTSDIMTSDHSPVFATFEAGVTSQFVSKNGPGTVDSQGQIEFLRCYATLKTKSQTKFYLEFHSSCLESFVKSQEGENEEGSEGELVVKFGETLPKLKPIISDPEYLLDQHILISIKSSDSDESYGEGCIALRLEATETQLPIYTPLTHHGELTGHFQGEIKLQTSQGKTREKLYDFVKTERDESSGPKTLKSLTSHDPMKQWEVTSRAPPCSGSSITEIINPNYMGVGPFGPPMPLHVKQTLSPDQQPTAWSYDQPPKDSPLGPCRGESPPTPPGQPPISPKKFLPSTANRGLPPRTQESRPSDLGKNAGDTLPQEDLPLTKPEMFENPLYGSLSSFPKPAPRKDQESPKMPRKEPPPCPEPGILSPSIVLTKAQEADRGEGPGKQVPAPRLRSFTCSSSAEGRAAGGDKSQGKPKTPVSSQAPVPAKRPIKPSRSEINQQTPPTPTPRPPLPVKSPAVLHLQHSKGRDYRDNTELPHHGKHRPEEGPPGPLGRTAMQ
# Assay: His-hSHIP1 activity (phosphatase assay, IP4 substrate, Biomol Green)
# Assay type: biochemical
# Design: key to Scoring, Approach 2 (Initial velocity Ratio): +++: higher than reference or reference - 15%; ++: reference - 16% to reference - 30%; +: reference - 31% or lower; −: inhibitor
# Conditions: second approach: ratio of initial velocities IP4 25/250 μM compared with reference compound; values without asterisk
# Protocol: Test compounds are dissolved in 95% ethanol to form stock solutions. Before screening, the stock solutions are diluted with Phosphatase Assay Buffer (20 mM Tris-HCL, 10 mM MgCl2 pH 7.5, 0.02% Tween 20) to form working assay solutions that contain 10% ethanol. The assay is carried out on 96-well microtiter plates using a modified procedure of that reported by Ong et al., Blood 110, 1942-1949, 2007 and Yang et al., Org Lett 7, 1073-1076, 2005, both of which references are incorporated herein by reference in their entirety.
# Data were generated by one of two variant methods. Test compounds are screened by one of two approaches described as follows. In the first approach, each reaction contains 5 μL of His-hSHIP1 enzyme (5-20 ng), 10 μL of the substrate, 1,3,4,5-inositol tetrakisphosphate (IP4; 50 μM final), 5 μL of Phosphatase Assay Buffer, and 5 µL of test compound at various concentrations in 10% ethanol (0-300 μM final). Control blanks are also prepared by replacing His-hSHIP1 enzyme, IP4, or test compounds with Phosphatase Assay Buffer. After adding the reaction components in a 96-well microtiter plate on ice, the reaction is mixed by briefly shaking the plate vigorously. The reaction is then incubated at 37° C. for 15 min with gentle shaking followed by addition of 100 μL of Biomol Green Reagent (BIOMOL, PA, USA) to terminate the reaction. The free phosphate released from IP4 by His-hSHIP1 binds to the Biomol Green Reagent, which turns the dye to green color. After incubating the mixture for 20 min at room temperature for color development, the absorbance is read with SpectraMax Plus 96-well plate reader (Molecular Devices, Sunnyvale, Calif., USA) at a wavelength of 650 nm.
# In the second approach, a master mix is prepared that contains 50 μL of His-hSHIP1 enzyme (0.4-1.6 ng/μL final), 25 μL of the substrate, IP4 (25 or 250 μM final), and 50 μL of test compound in 3.3% ethanol (100 μL final). Control blanks are also prepared by replacing His-hSHIP1 enzyme, IP4, or test compounds with Phosphate Assay Buffer. […] Each reaction component is preincubated at 37° C. for 30 min before adding to a 96-well microtiter plate. The master mix is then incubated at 37° C. At time 0, 20, and 30 min, 25 μL of the master mix is removed and transferred to a new 96-well microtiter plate, to which 100 μL of Biomol Green Reagent is added to stop the reaction. After incubating the mixture for 20 min at room temperature for color development, the absorbance is read with SpectraMax Plus 96-well plate reader at a wavelength of 650 nm. Phosphate released is plotted against time to calculate the initial velocities (i.e., slope of the graph) at each IP4 concentration. The initial velocities are baseline corrected and the ratio of initial velocities (IP425/IP4250) is calculated and used to rate the test compounds.
row,Compound,"Scoring, Approach 2 (Initial velocity Ratio)"
1,"CC1(C)CCC2=C1CC[C@H]([C@@]1(C)CC[C@H](O)C[C@@H]1CO)[C@H]2CNCC1CC1 [Cpd. No. 2, (1S,3S,4R)-4-((4R,5S)-4-((cyclopropylmethylamino)methyl)-1,1-dimethyl-2,3,4,5,6,7-hexahydro-1H-inden-5-yl)-3-(hydroxymethyl)-4-methylcyclohexanol]",+
2,"CC(=O)NC[C@H]1C2=C(CC[C@@H]1[C@@]1(C)CC[C@H](O)C[C@@H]1CO)C(C)(C)CC2 [Cpd. No. 4, N-(((4R,5S)-5-((1R,2S,4S)-4-hydroxy-2-(hydroxymethyl)-1-methylcyclohexyl)-1,1-dimethyl-2,3,4,5,6,7-hexahydro-1H-inden-4-yl)methyl)acetamide]",+
3,"CNC[C@H]1C2=C(CC[C@@H]1[C@@]1(C)CC[C@H](O)C[C@@H]1CO)C(C)(C)CC2 [Cpd. No. 5, (1S,3S,4R)-4-((4R,5S)-1,1-dimethyl-4-((methylamino)methyl)-2,3,4,5,6,7-hexahydro-1H-inden-5-yl)-3-(hydroxymethyl)-4-methylcyclohexanol]",+++
4,"CC1(C)CCC2=C1CC[C@H]([C@@]1(C)CC[C@H](O)C[C@@H]1CO)[C@H]2CNS(C)(=O)=O [Cpd. No. 7, N-(((4R,5S)-5-((1R,2S,4S)-4-hydroxy-2-(hydroxymethyl)-1-methylcyclohexyl)-1,1-dimethyl-2,3,4,5,6,7-hexahydro-1H-inden-4-yl)methyl)methanesulfonamide]",+
5,"CC1(C)CCC2=C1CC[C@H]([C@@]1(C)CC[C@H](O)C[C@@H]1CO)[C@H]2CNC(=O)c1ccccc1 [Cpd. No. 8, N-(((4R,5S)-5-((1R,2S,4S)-4-hydroxy-2-(hydroxymethyl)-1-methylcyclohexyl)-1,1-dimethyl-2,3,4,5,6,7-hexahydro-1H-inden-4-yl)methyl)benzamide]",+
6,"C=C1CC[C@H]2[C@H](CNCc3ccc(F)cc3)[C@@H]([C@@]3(C)CC[C@H](O)C[C@@H]3CO)CC[C@]12C [Cpd. No. 10, (1S,3S,4R)-4-((3aS,4R,5S,7aS)-4-((4-fluorobenzylamino)methyl)-7a-methyl-1-methyleneoctahydro-1H-inden-5-yl)-3-(hydroxymethyl)-4-methylcyclohexanol]",−

# System: Akt phosphorylation in Molt-4 (PTEN-/SHIP1+) cells
# Assay: Akt phosphorylation in lymphocytes (Western blot, IGF-1 stimulated)
# Assay type: cell-based
# Design: key: +: inhibits Akt phosphorylation at 30 μM; −: no effect on Akt phosphorylation at 30 μM
# Conditions: 30 μM; Molt-4 (SHIP1+) cells, IGF-1 100 ng/mL
# Protocol: Molt-4 (PTEN-/SHIP1+) cells are starved in serum free RPMI for overnight. In a 15 mL conical tube, 2-3 million serum starved cells (1 million cells per mL) are treated with various concentrations of test compound ([…]) for 30 min at 37° C. followed by stimulation with 100 ng/mL of IGF-1 for 1 hour at 37° C. After stimulation, cells are washed once with ice-cold DPBS and lysed with Lysis Buffer (20 mM Tris-HCl, pH 7.5, 140 mM NaCl, 1% NP-40, Complete Mini Protease Inhibitor Cocktail, 10 mM NaF, 1 mM Na3VO4, 1 mM β-glycerolphosphate) on ice for 30 min with vortexing every 10 min. Samples are then centrifuged at 13,000 rpm for 20 min, and supernatants are collected as total cell lysate samples. Protein concentration is determined using bicinchonic acid assay, and about 15 μg of total protein from each sample is loaded and separated on a 4-12% Tris-Glycine gel. After SDS-PAGE, proteins are transferred from the gel to a nitrocellulose membrane. The membrane is blocked in 5% BSA in PBS containing 0.1% Tween-20 (PBS-T) for 1 hour at room temperature before probing with primary antibodies for overnight at 4° C. The following antibodies are used: mouse anti-SHIP1 (1:500 dilution; Santa Cruz, Calif., USA), rabbit anti-phospho-Akt (Ser473) (1:1000 dilution; Cell Signaling Technologies, MA, USA), rabbit anti-Akt (1:1000; Cell Signaling Technologies, MA, USA), and rabbit anti-actin (1:2000; Cell Signaling Technologies, MA, USA). The membrane is then incubated with goat anti-rabbit or anti-mouse secondary antibodies (1:3000) for 1 hour at room temperature. Target proteins on the membrane are detected with ECL solution and exposed on a film.
row,Compound,Molt-4 (SHIP+): inhibition of Akt phosphorylation
1,"C=C1CC[C@H]2[C@H](CNC#N)[C@@H]([C@@]3(C)CC[C@H](O)C[C@@H]3CO)CC[C@]12C [Cpd. No. 89, N-(((3aS,4R,5S,7aS)-5-((1R,2S,4S)-4-hydroxy-2-(hydroxymethyl)-1-methylcyclohexyl)-7a-methyl-1-methyleneoctahydro-1H-inden-4-yl)methyl)cyanamide]",+
2,"C=C1CC[C@H]2[C@H](CC(N)=O)[C@@H]([C@@]3(C)CC[C@H](O)C[C@@H]3CO)CC[C@]12C [Cpd. No. 90, 2-((3aS,4R,5S,7aS)-5-((1R,2S,4S)-4-hydroxy-2-(hydroxymethyl)-1-methylcyclohexyl)-7a-methyl-1-methyleneoctahydro-1H-inden-4-yl)acetamide]",+
3,"C=C1CC[C@H]2[C@H](O)[C@@H]([C@@]3(C)CC[C@H](O)C[C@@H]3CCC#N)CC[C@]12C [Cpd. No. 94, 3-((1S,2S,5S)-5-hydroxy-2-((3aR,4R,5R,7aS)-4-hydroxy-7a-methyl-1-methyleneoctahydro-1H-inden-5-yl)-2-methylcyclohexyl)propanenitrile]",+
4,"C=C1CC[C@H]2[C@H](O)[C@@H]([C@@]3(C)CC[C@H](O)C[C@@H]3CCC(N)=O)CC[C@]12C [Cpd. No. 95, 3-((1S,2S,5S)-5-hydroxy-2-((3aR,4R,5R,7aS)-4-hydroxy-7a-methyl-1-methyleneoctahydro-1H-inden-5-yl)-2-methylcyclohexyl)propanamide]",+
5,"C=C1CC[C@H]2[C@H](O)[C@@H]([C@@]3(C)CC[C@H](O)C[C@H]3CCC(=O)O)CC[C@]12C [Cpd. No. 97, 3-((1R,2S,5S)-5-hydroxy-2-((3aR,4R,5R,7aS)-4-hydroxy-7a-methyl-1-methyleneoctahydro-1H-inden-5-yl)-2-methylcyclohexyl)propanoic acid]",+
6,"C=C1CC[C@H]2[C@H](C(=O)O)[C@@H]([C@@]3(C)CC[C@H](O)C[C@H]3CO)CC[C@]12C [Cpd. No. 98, (3aS,4R,5S,7aS)-5-((1R,2R,4S)-4-hydroxy-2-(hydroxymethyl)-1-methylcyclohexyl)-7a-methyl-1-methyleneoctahydro-1H-indene-4-carboxylic acid]",+
